# What was measured:
# [1] = target: T1, ERα (estrogen receptor α) (Homo sapiens, UniProt P03372); assay: ERE-luciferase reporter assay in HEK293T cells transfected with Flag-ERα (weaker activation than ERβ); type: cell-based
# T1 construct: gene ESR1; c-Flag ERα (OHu26586D; pcDNA3.1+/C-(K) DYK)
# T1 sequence (P03372 1-595): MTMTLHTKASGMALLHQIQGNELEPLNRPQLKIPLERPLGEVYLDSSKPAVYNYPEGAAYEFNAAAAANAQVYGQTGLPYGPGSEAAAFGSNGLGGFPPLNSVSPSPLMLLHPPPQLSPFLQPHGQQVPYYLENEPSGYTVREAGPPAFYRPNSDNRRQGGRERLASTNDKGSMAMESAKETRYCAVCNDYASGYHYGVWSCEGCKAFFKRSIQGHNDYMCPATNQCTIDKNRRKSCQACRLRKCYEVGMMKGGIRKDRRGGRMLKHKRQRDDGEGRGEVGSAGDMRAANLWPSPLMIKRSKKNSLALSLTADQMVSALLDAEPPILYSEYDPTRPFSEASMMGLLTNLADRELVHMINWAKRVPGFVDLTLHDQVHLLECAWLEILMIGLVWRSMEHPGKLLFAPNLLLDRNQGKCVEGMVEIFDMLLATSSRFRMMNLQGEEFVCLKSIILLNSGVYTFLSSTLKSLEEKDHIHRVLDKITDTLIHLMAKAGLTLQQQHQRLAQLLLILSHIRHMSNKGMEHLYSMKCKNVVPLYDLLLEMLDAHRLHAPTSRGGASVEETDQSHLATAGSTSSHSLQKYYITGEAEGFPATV
# [2] = target: T2, ERβ (estrogen receptor β) (Homo sapiens, UniProt Q92731); assay: ERE-luciferase reporter assay in HEK293T cells transfected with Flag-ERβ (agonist); type: cell-based
# T2 construct: gene ESR2; c-Flag ERβ (OHu25562D; pcDNA3.1+/C-(K) DYK)
# T2 sequence (Q92731 whole entry): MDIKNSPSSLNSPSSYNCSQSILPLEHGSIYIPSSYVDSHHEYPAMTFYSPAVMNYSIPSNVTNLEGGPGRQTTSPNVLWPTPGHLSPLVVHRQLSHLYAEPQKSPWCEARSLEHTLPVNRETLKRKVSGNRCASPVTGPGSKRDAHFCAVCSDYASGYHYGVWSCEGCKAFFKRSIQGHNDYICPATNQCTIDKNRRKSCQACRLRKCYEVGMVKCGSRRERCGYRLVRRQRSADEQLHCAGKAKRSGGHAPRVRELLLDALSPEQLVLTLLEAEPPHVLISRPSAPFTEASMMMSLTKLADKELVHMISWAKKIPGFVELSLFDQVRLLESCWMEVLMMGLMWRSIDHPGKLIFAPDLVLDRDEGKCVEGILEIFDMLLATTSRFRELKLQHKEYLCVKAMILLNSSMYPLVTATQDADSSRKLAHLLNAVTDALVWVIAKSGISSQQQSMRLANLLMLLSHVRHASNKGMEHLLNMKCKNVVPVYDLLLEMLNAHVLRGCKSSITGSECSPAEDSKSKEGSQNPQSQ
fold induction at 0.01 µM ([1]; HEK-293T),"fold induction at 0.01 µM ([2]; HEK-293T, read-out: ERE-luciferase reporter assay in HEK293T cells transfected with Flag-ERβ (agonis))",Compound,"ERE-luciferase reporter assay in HEK293T cells transfected with Flag-ERα (weaker) ([1]; hek293t cells, 0.03 µM)","ERE-luciferase reporter assay in HEK293T cells transfected with Flag-ERβ (agonis) ([2]; hek293t cells, 0.03 µM)"
2.1,84,Oc1ccc([C@@H]2Oc3ccc(O)cc3[C@@H]3CCC[C@@H]32)cc1 [LY500307],–,–
–,–,OSU-ERb-12,~ 4 fold activation at 30 nmol/l,~ 40 fold activation at 30 nmol/l
